Experimental data: article PMC7663263 (Molecules, 2020)
Where two headings read alike, the source gives them in different places. Values belong to the compound of their own block, whether it stands above or below them.

How the values were obtained:
S. mansoni TGR [1] = molecular target: T1, S. mansoni TGR (Schistosoma mansoni, UniProt Q962Y6); set-up: method as in PMID 17579510
T1 construct: made in house; host or cells: E. coli
T1 sequence (Q962Y6 1-598): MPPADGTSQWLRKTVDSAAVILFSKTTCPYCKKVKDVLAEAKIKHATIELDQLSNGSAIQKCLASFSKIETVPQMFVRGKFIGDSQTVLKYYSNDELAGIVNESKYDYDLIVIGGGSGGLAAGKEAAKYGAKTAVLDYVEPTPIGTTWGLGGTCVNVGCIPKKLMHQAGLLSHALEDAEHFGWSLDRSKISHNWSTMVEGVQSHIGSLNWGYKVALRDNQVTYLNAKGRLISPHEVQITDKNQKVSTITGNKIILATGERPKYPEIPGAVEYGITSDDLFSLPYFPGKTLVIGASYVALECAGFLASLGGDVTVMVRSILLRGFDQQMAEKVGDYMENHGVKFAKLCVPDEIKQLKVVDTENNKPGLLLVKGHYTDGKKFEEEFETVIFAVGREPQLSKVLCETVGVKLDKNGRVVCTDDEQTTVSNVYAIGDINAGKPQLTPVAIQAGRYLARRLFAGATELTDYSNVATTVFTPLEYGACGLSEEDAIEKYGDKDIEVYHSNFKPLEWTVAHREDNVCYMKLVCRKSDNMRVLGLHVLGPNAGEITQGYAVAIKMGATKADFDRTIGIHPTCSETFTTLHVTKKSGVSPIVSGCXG

[2] = Cytotoxicity on primary mouse macrophages (PMM); settings: mouse
Method: (§1) Toxicity in human fetal lung fibroblast (MRC-5) cell line and primary mouse macrophages (PMM) was assessed using a previously reported assay in 96-well microtiter plates. Tamoxifen and miltefosine were included as reference drugs (Table 10).
(§2) For MRC5SV2 or PMM cells, the assays were performed in 96-well microtiter plates, each well containing 10 µL of compound dilution and 190 µL of cell inoculum (3 × 10^4 cells/mL) as reported. Cell growth was compared to untreated controls (100% growth) and assay-media controls (0% growth). After three-day incubation, cell viability was assessed fluorometrically by adding resazurin [50 µL/well of a stock solution in phosphate buffer (50 µg/mL)], incubating for 4 h and measuring fluorescence (ex 550 nm, em 590 nm). The results are expressed as percentage reduction in cell growth as compared to untreated control wells. […] Tamoxifen was included as the reference drug.

S. mansoni TGR [3] = molecular target: T1, S. mansoni TGR; assay: biochemical
Method: Enzymes were prepared in E. coli as described. Assays were performed at 25 °C in 0.1 M potassium phosphate (pH 7.4), 10 mM EDTA using 100 μM NADPH and 3 mM dithiobis(2-nitrobenzoic acid) (DTNB). […] The increase in A412 during the first 3 min was recorded upon DTNB addition. The reaction was done in triplicate.

RAW 264.7 macrophages = assay: Cytotoxicity on RAW 264.7 macrophages; format: cell-based, murine; settings: 48 h incubation; 2880 min; read-out: Cytotoxicity on RAW 264.7 Macrophages CC50 (µM) ± SD
Method: (§3) Cytotoxicity was evaluated on RAW 264.7 macrophages that were maintained at 37 °C with 5% CO2 in Dulbecco’s Modified Eagle’s Medium (DMEM, Invitrogen, Toulouse, France) supplemented with 100 U/mL penicillin-streptomycin (Invitrogen) and 10% heat-inactivated fetal bovine serum, as previously described. Briefly, cells were plated in 96-well microplates at a density of 2 × 10^4 cells per well. After incubation for 24 h at 37 °C in 5% CO2, the medium was removed from each well and 100 µL of medium containing 2-fold serial dilutions of compounds was added to each well. After 48 h incubation at 37 °C in 5% CO2, 10 µL of 450 µM resazurin was added to each well and further incubated in the dark for 4 h. Cell viability was determined as described above. The cytotoxicity of the compounds was expressed as CC50.

[4] = Cytotoxicity on RAW 264.7 macrophages; format: cell-based, murine; settings: mouse, 48 h incubation, read-out: Cytotoxicity on RAW 264.7 Macrophages CC50 (µM) ± SD
Method: as §3

[5] = 1–2 h after oral administration; cited from earlier work
S. mansoni TGR [6] = molecular target: T1, S. mansoni TGR; set-up: method as in PMID 17579510; remark: listed apart in the source
S. mansoni TGR [7] = molecular target: T1, S. mansoni TGR; set-up: method as in PMID 17579510; remark: listed apart in the source
[8] = tested on: L. infantum MHOM/MA (BE)/67 amastigotes; assay: Anti-leishmanial activity, L. infantum amastigotes in primary peritoneal mouse macrophages; format: cell-based, Leishmania infantum
Method: Anti-leishmanial activity: L. infantum MHOM/MA (BE)/67 amastigotes were collected from the spleen of an infected donor hamster and used to infect primary peritoneal mouse macrophages grown in a 96-well plate. After 2 days outgrowth, 5 × 10^5 amastigotes were added to each well and incubated for 2 h at 37 °C. The compounds were subsequently added and the plates were further incubated for 5 days at 37 °C and 5% CO2. Parasite burdens (mean number of amastigotes/macrophage) were microscopically assessed on 500 cells after Giemsa staining and expressed as a percentage of the blank controls. Miltefosine was included as reference drug. The use of laboratory rodents was carried out in accordance to all mandatory guidelines (EU directives, including the Revised Directive 2010/63/EU on the Protection of Animals used for Scientific Purposes that came into force on 1 January 2013, and the declaration of Helsinki in its latest version) and was approved by the Ethical Committee of the University of Antwerp, Belgium [UA-ECD 2011–77 (17-02-2012 and UA-ECD 2015-90].

[9] = Cytotoxicity on human fetal lung fibroblast MRC-5; settings: human
Method: as §1, §2

Human TrxR [10] = settings: 3 mM DTNB, read-out: IC50 Human TrxR, substrate DTNB, cited from earlier work
[11] = molecular target: human thioredoxin reductase (TrxR); set-up: method as in PMID 9685351; settings: cited from earlier work
Human GR = settings: read-out: IC50 Human GR, substrate GSSG, cited from earlier work
T. cruzi Tulahuen CL2 = assay: Anti-Chagas activity, T. cruzi on MRC-5 cells; format: cell-based; settings: Trypanosoma cruzi, TULAHUEN, MRC5, 168 h; amastigotes, MRC-5 host cells, 7 days; read-out: Trypanosoma cruzi IC50 (µM) ± SD
Method: Anti-Chagas activity: T. cruzi Tulahuen CL2 (benznidazole-sensitive, LacZ-reporter strain) was maintained on MRC-5 cells in minimal essential medium (MEM) supplemented with […], 16.5 mM sodium hydrogen carbonate and 5% FCS. In the assay, 4 × 10^3 MRC-5 cells and 4 × 10^4 parasites were added to each well. After incubation at 37 °C for 7 days, parasite growth was assessed by adding the substrate chlorophenol red -D-galactopyranoside. The color reaction was read at 540 nm after 4 h and absorbance values were expressed as a percentage of the blank controls. Benznidazole was included as reference drug.

Human TrxR [12] = settings: 20 µM substrate, after 10 min enzyme-NADPH-gold complex preincubation, read-out: IC50 Human TrxR, substrate hTrxC72S, cited from earlier work
[13] = tested on: T. b. brucei Squib-427 strain; assay: Anti-trypanosomal activity, T. b. brucei trypomastigotes (resazurin); format: cell-based, Trypanosoma brucei brucei; settings: Trypanosoma brucei, 72 h
Method: (§4) Anti-trypanosomal activity: T. b. brucei Squib-427 strain (suramin-sensitive) and T. b. gambiense (ITMAP/1893) were cultured at 37 °C and 5% CO2 in HMI-9 medium supplemented with 10% FCS [90]. About 10^4 trypomastigotes/well were added to each well and parasite growth was assessed after 72 h at 37 °C by adding resazurin and reading at ex 550 nm, em 590 nm. Suramin was included as reference drug for T. b. brucei and pentamidine for T. b. gambiense.

[14] = tested on: Leishmania donovani LV9 intramacrophage amastigotes; assay: L. donovani LV9 intramacrophage amastigotes; format: cell-based; settings: Leishmania donovani; read-out: Leishmania Donovani LV9 Intramacrophage Amastigotes IC50 (µm) ± SD
Method: (§5) In vitro anti-leishmanial evaluation was perfomed on both axenic and intramacrophage L. donovani amastigotes as previously described. […] Briefly, compounds were distributed in 96-well plates using 2-fold dilutions in 100 µL PYG medium. A. castellanii trophozoites were added to each well at 5 × 10^4 amoeba/mL in 200 µL final volume. L. donovani axenic amastigotes were added to each well at 10^6 parasites/mL in 200 µL final volume. After 72 h incubation at 27 °C, 20 µL of 1 mM resazurin was added to each well and further incubated at 27 °C for 8 h for A. castellanii and for 24 h for L. donovani axenic amastigotes. In living cells, resazurin is reduced in resorufin. This conversion is monitored by measuring the absorbance at specific wavelengths of resorufin (570 nm) and resazurin (600 nm) using a microplate reader (Labsystems Multiskan MS, McLean, VA, USA). In this assay, the activity was expressed in IC50. Miltefosine and pentamidine were used as reference drugs. All experiments were performed in three independent experiments.

[15] = tested on: Leishmania donovani LV9 axenic amastigotes; assay: L. donovani LV9 axenic amastigotes (resazurin); format: cell-based; settings: Leishmania donovani; read-out: Leishmania donovani LV9 Axenic Amastigotes IC50 (µM) ± SD
Method: as §5

[16] = tested on: Acanthamoeba castellanii ATCC 30010; assay: Anti-acanthamoebal activity on A. castellanii trophozoites (resazurin); format: cell-based; settings: ATCC30010, 72 h, read-out: Acanthamoeba castellanii ATCC 30010 IC50 (µM) ± SD
Method: as §5

[17] = tested on: T. b. gambiense (ITMAP/1893); assay: Anti-trypanosomal activity, T. b. gambiense trypomastigotes (resazurin); format: cell-based, Trypanosoma brucei gambiense; settings: Trypanosoma brucei, GAMBIENSE, 72 h, read-out: T. b. gambiense IC50 (µM) ± SD
Method: as §4

SMILES: CC[P](CC)(CC)=[Au][S][C@@H]1O[C@H](COC(C)=O)[C@@H](OC(C)=O)[C@H](OC(C)=O)[C@H]1OC(C)=O [Auranofin]
IC50 (S. mansoni TGR [1]; read-out: IC50 S. mansoni TGR, substrate HED + GSSG; 20 nM enzyme, 8 mM substrate; after 15 min preincubation; cited from earlier work): 6 nM | CC50 at 72 h ([2]; primary macrophages): 2000 nM | IC50 (S. mansoni TGR [3]): 1.1 nM | CC50 (RAW 264.7 macrophages): 4.43 ± 0.08 µM | CC50 at 48 h ([4]; raw 264.7 macrophages): ~4 µM | drug remaining in the plasma [5]: 15–25% | plasma concentration [5]: 10000 ng/mL | IC50 (S. mansoni TGR [6]; read-out: IC50 S. mansoni TGR, substrate DTNB; 20 nM enzyme, 3 mM DTNB; after 15 min preincubation; cited from earlier work): 7 nM | IC50 (S. mansoni TGR [7]; read-out: IC50 S. mansoni TGR, substrate GSSG; 20 nM enzyme, 100 µM GSSG; after 15 min preincubation; cited from earlier work): 9 nM | IC50 versus CC50 in the assays with mouse macrophages ([8]; L. infantum amastigotes, equal IC50 and CC50 values): non-specific activity | CC50 at 72 h ([9]; mrc-5 cells): 520 nM

SMILES: OC[C@H]1O[C@H]([S-])[C@H](O)[C@@H](O)[C@@H]1O.[Au+] [Aurothioglucose]
IC50 (Human TrxR [10]; 2 nM enzyme, steady state kinetic studies): 65 nM | IC50 (S. mansoni TGR [1]; 20 nM enzyme, 8 mM substrate; after 15 min preincubation; read-out: IC50 S. mansoni TGR, substrate HED + GSSG; cited from earlier work): 400 nM | IC50 (S. mansoni TGR [6]; 20 nM enzyme, 3 mM DTNB; after 15 min preincubation; read-out: IC50 S. mansoni TGR, substrate DTNB; cited from earlier work): 70 nM | Ki [11]: 4 nM | IC50 (Human GR; 1.5 nM enzyme, 1 mM GSSG, steady state kinetic studies): > 100000 nM | IC50 (S. mansoni TGR [7]; 20 nM enzyme, 100 µM GSSG; after 15 min preincubation; read-out: IC50 S. mansoni TGR, substrate GSSG; cited from earlier work): 3000 nM

SMILES: O=C(Cn1ccnc1[N+](=O)[O-])NCc1ccccc1 [Benznidazole, reference compound]
IC50 (T. cruzi Tulahuen CL2): 2.89 ± 0.94 µM

SMILES: [Cl][Au][PH]1(c2ccccc2)C(c2ccccn2)=CC=C1c1ccccn1 [GoPI, {1-phenyl-2,5-di(2-pyridyl)phosphole}AuCl]
IC50 (Human TrxR [10]; 3.7 nM enzyme, after 10 min preincubation): 1 nM | IC50 (Human TrxR [10]; […] enzyme, after 10 min preincubation): 0.8 nM | IC50 (Human GR; 1.4-[…] enzyme, 100 µM GSSG, after 10 min preincubation): 2 nM | IC50 (Human GR; […] enzyme, 100 µM GSSG, after 10 min preincubation): 1 nM | IC50 (Human TrxR [12]; 24 nM enzyme): 6.9 nM | IC50 (Human TrxR [12]; 30 nM enzyme): 7 nM

IC50 [14]: 4490 ± 1080 nM | IC50 [15]: 1.28 ± 0.12 µM | IC50 ([8]; Leishmania infantum, Macrophage, 120 h, amastigotes in primary peritoneal mouse macrophages, 5 days, read-out: Leishmania infantum IC50 (µM) ± SD): 11.3 ± 2.88 µM | IC50 [16]: 9.21 ± 2.04 µM
SMILES: CCCCCCCCCCCCCCCCOP(=O)([O-])OCC[N+](C)(C)C [Miltefosine]
CC50 at 3 days [2]: 20000 nM | IC50 [13]: 11400 nM | CC50 at 48 h ([4]; RAW 264.7 macrophages): > 25 µM

IC50 [16]: 1.39 ± 0.37 µM
SMILES: N=C(N)c1ccc(OCCCCCOc2ccc(C(=N)N)cc2)cc1 [Pentamidine]
IC50 [17]: 0.0011 ± 0.0001 µM | CC50 at 48 h ([4]; RAW 264.7 macrophages): > 25 µM

SMILES: Cc1ccc(C(=O)Nc2ccc(S(=O)(=O)O)c3cc(S(=O)(=O)O)cc(S(=O)(=O)O)c23)cc1NC(=O)c1cccc(NC(=O)Nc2cccc(C(=O)Nc3cc(C(=O)Nc4ccc(S(=O)(=O)O)c5cc(S(=O)(=O)O)cc(S(=O)(=O)O)c45)ccc3C)c2)c1 [Suramin]
IC50 [13]: 30 nM

SMILES: CC/C(=C(\c1ccccc1)c1ccc(OCCN(C)C)cc1)c1ccccc1 [Tamoxifen]
CC50 at 3 days [9]: 10600 nM
